{"source": "paper PMC13538172", "about": "“Zonisamide nanodiamonds for brain targeting: A comprehensive study utilising in silico, in vitro, in vivo, and molecular investigation for successful nose-to-brain delivery for epilepsy management” (Drug Delivery and Translational Research, 2025)", "key": {"[1]": {"tested_on": "neurofilament light polypeptide (NEFL)", "assay": "Serum NEFL by ELISA in TLE rats", "format": "in vivo", "conditions": "compared to the TLE control rats; intranasal, 7 days", "description": "(§1) Temporal lobe epilepsy (TLE) was induced in rats using the pilocarpine model according to the method of Arshad et al.. Prior to the experiment, rats were housed in plastic cages at October University for Modern Science and Arts under controlled environmental conditions (temperatures of 25°±3°C and 50% humidity) with free access to water and softened standard pellet chow. The rats were injected with pilocarpine (300 mg/kg; i.p.) to induce status epilepticus (SE). Atropine (1 mg/kg; i.p.) was injected 30 minutes before pilocarpine injection to antagonize the peripheral muscarinic activity. SE was defined using the modified Racine scale by observing seizure severity categorized as stages 4 and 5. […] The SE seizures were left to last for 3 hours to induce hippocampus damage, after which diazepam (10 mg/kg; i.p.) was injected to attenuate the seizures. Lubricant ophthalmic gel was applied with a cotton swab to each eye to prevent the corneas from drying out during the seizures. The rats were hydrated with sterile Ringer's lactate injections (1 mL, i.p.) for 3 days post-SE induction. […]\n(§2) The serum levels of neuron-specific enolase (NSE), matrix metallopeptidase-9 (MMP-9), neurofilament light polypeptide (NEFL), and brain-derived neurotrophic factor (BDNF) were measured by ELISA technique using the following standard kits CAT no. […]"}, "[2]": {"tested_on": "experimentally induced TLE in rats", "assay": "EEG and behavioural seizures in pilocarpine-induced temporal lobe epilepsy (TLE)", "format": "in vivo, adult male Wistar albino rats", "conditions": "intranasal 16 mg/kg/day of ZNS for 7 days", "description": "as §1, with “induction. Animal welfare assessments were conducted multiple times per day for several days after the induction of SE. The Pilocarpine-inducted rats began to develop spontaneous recurrent seizures (SRS) as a characteristic of TLE within 3 weeks, after which the treatments were injected for 7 days, and the in vivo pharmacodynamic investigation was conducted.” for “induction.”\nAt the end of the experiment, SRS was monitored using a video recorder (6 hours/day) and scored according to the Racine scale. In addition, the brain activity was recorded using an electroencephalogram (EEG, powerlab module, which consists of Power-lab/8sp and Animal Bio-Amplifier, Australia). […]"}, "[3]": {"tested_on": "brain-derived neurotrophic factor (BDNF)", "assay": "Serum BDNF by ELISA in TLE rats", "format": "in vivo", "conditions": "TLE control 22.1 ± 1.7, normal group 76.8 ± 6.1", "description": "as §1, §2"}, "[4]": {"tested_on": "matrix metallopeptidase-9 (MMP-9)", "assay": "Serum MMP-9 by ELISA in TLE rats", "format": "in vivo", "conditions": "compared to the TLE control rats; intranasal, 7 days", "description": "as §1, §2"}}}
{"smiles": "NS(=O)(=O)Cc1noc2ccccc12", "note": "[ZNS, Zonisamide]", "values": [{"measurement": "decrease in serum level of NEFL", "setting": "[1]", "value": 44.6, "unit": "%"}, {"measurement": "maximum spike amplitude during the SRS", "setting": "[2]; n = 8", "value": "0.4 ± 0.1", "unit": "mV"}, {"measurement": "mean duration of single SRS (epileptogenic ictal discharge in EEG)", "setting": "[2]; n = 8", "value": "96.5 ± 2.9", "unit": "s"}, {"measurement": "incidence of motor seizures per 6 h", "setting": "[2]; video recording 6 hours per day", "value": "3.5 ± 0.5"}, {"measurement": "serum level of BDNF", "setting": "[3]", "value": "47.45 ± 1.9", "unit": "pg/mL"}, {"measurement": "decrease in serum level of MMP-9", "setting": "[4]", "value": 40.1, "unit": "%"}]}
